Experimental data as given in paper PMC6985109, “Cellular apoptosis and necrosis as therapeutic targets for novel Eugenol Tosylate Congeners against Candida albicans” (Scientific Reports, 2020).
≈ marks a conversion by molar mass, not a printed value. Read-outs that look alike come from different tables or passages of the source.

How the values were obtained:
[1] = system: Candida albicans 4106; assay: Broth microdilution antifungal susceptibility (MIC/MFC); format: cell-based; conditions: strain 4106, FLC resistant; for MIC: 37 °C, 24 h
Method: (§1) In this study, 10 clinical Candida albicans isolates, comprising of 5 fluconazole susceptible and 5 fluconazole resistant, were used. C. albicans SC5314 was also used as a control laboratory strain. Clinical strains used in this study were stored at −80 °C supplemented with 20% glycerol in the Department of Clinical Microbiology and Infectious Diseases, University of the Witwatersrand, Johannesburg and were previously collected under the ethical clearance number M000402, obtained from the Human Research Ethics Committee, University of the Witwatersrand. For experimental purpose each strain from glycerol stock was recovered on Sabouraud Dextrose (SDA) agar plates at 37 °C for 24 h.
(§2) Minimum Inhibitory Concentration (MIC) and Minimum Fungicidal Concentrations (MFC) of all newly synthesized eugenol-tosylate congeners (ETC-1–ETC-7) against C. albicans strains were determined by broth microdilution assay in accordance with the approved guidelines described by Clinical and Laboratory Standards Institute (CLSI) guidelines M27-A[38]. The test compounds were prepared in 1% DMSO to a stock concentration of 8192 µg/ml. Two-fold dilutions of test compounds (100 µL) were prepared in 96-well flat-bottom microtiter plates, inoculated with 100 µl of inoculum (1 × 10^6 cells/mL) and incubated at 37 °C for 24 hours. In every set of experiment, positive control (fluconazole), negative vehicle control (1% DMSO) and culture control (media and cells only) were included. MIC’s were determined visibly as the lowest concentration of the test compounds that inhibited growth of test organism. To determine MFC, each well without visible growth was sub-cultured onto agar plates. Concentration in the first well with no growth on plate was taken as MFC. […] The experiment was performed in triplicate to validate the results.

[2] = system: Candida albicans 4122; assay: as above; format: cell-based; conditions: strain 4122, FLC resistant; for MIC: 37 °C, 24 h
Method: as §1, §2

[3] = system: Candida albicans 4135; assay: as above; format: cell-based; conditions: strain 4135, FLC resistant; for MIC: 37 °C, 24 h
Method: as §1, §2

[4] = system: Candida albicans 4175; assay: as above; format: cell-based
Method: as §1, §2

[5] = system: Candida albicans 4179; assay: as above; format: cell-based; conditions: strain 4179, FLC susceptible; for MIC: 37 °C, 24 h
Method: as §1, §2

[6] = system: Candida albicans 4180; assay: as above; format: cell-based; conditions: strain 4180, FLC susceptible; for MIC: 37 °C, 24 h
Method: as §1, §2

[7] = system: Candida albicans 4324; assay: as above; format: cell-based; conditions: strain 4324, FLC resistant; for MIC: 37 °C, 24 h
Method: as §1, §2

[8] = system: Candida albicans 4563; assay: as above; format: cell-based; conditions: strain 4563, FLC susceptible; for MIC: 37 °C, 24 h
Method: as §1, §2

[9] = system: Candida albicans 4576; assay: as above; format: cell-based; conditions: strain 4576, FLC susceptible; for MIC: 37 °C, 24 h
Method: as §1, §2

[10] = system: Candida albicans 5112; assay: as above; format: cell-based; conditions: strain 5112, FLC resistant; for MIC: 37 °C, 24 h
Method: as §1, §2

[11] = system: Candida albicans SC5314; assay: as above; format: cell-based; conditions: SC5314, FLC susceptible; for MIC: 37 °C, 24 h
Method: as §1, §2

[12] = system: fluconazole susceptible and resistant C. albicans strains; assay: Broth microdilution antifungal susceptibility, ranges over strains; format: cell-based; conditions: Candida albicans
Method: as §1, §2

[13] = system: C. albicans 4175, C. albicans 5112 and C. albicans SC5314; assay: FITC annexin V/PI staining flow cytometry, ranges over three strains; format: cell-based, Candida albicans; conditions: 250 μmol/L, positive control
Method: (§3) To study the effect of test compounds on apoptotic markers protoplasts were prepared as described previously, with modifications. Briefly, mid-exponential phase cells were harvested and exposed to various concentrations of test compounds (0.5 × MIC, 1 × MIC and 2×MIC) for 3 h. The cells were then washed twice with protoplast buffer- I (1 M sorbitol, 50 mM tris base, 10 mM MgCl2 and 30 mM DTT) and incubated in the same buffer for 15 minutes at 25 °C, followed by centrifugation at 1500 rpm for 5 minutes. Supernatant was removed and cells were incubated with buffer- II (1 M sorbitol, 50 mM tris base, 10 mM MgCl2 and 1 mM DTT) supplemented with lyticase enzyme (≥1 µg/mL) used to digest the cell wall for 1 h at 25 °C. Buffer- II were removed by centrifugation and then cells were incubated with buffer- III (1 M sorbitol, 50 mM tris base and 10 mM MgCl2) for 20 minutes at room temperature. After the incubation cells were again centrifuged at 1500 rpm for 5 minutes and supernatant was discarded. Protoplasts then finally washed once with PBS and re-suspended in the same for further use. In each washing steps the volume of these protoplast buffers were 5 times to cell volume with pH 7.4.
This assay was used to identify early apoptosis by detecting movement of phosphatidylserine (PS) from the inner to the outer leaflet of plasma membrane. FITC annexin V Apoptosis Detection Kit I (BD Biosciences, CA, USA) was used according to the manufacturer’s instructions. Protoplasts of C. albicans cells treated with different concentrations of the test compounds, as mentioned in above section, were resuspended in 1X annexin V binding buffer ([…]) at a concentration of 1 × 10^6 cells per ml. To the 100 µl of this solution, 5 µl each of FITC annexin V and propidium iodide (PI) was added. Tubes were gently vortexed and incubated for 15 minutes at 25 °C in the dark. After incubation, 400 µl of 1X annexin V binding buffer was added to each tube and analyzed using the BD LSRFortessa Flow cytometer (Becton Dickinson, NJ, USA). The cell populations in four different quadrants of a quadrant dot plot were analyzed and interpreted as; Q1: necrosis (annexin V^−/PI^+), Q2: late apoptosis (annexin V^+/PI^+), Q3: early apoptosis (annexin V^+/PI^−) and Q4: viable cells (annexin V^−/PI^−), by using software FlowJo_V10.

[14] = system: C. albicans 4175, C. albicans 5112 and C. albicans SC5314; assay: TUNEL assay for DNA damage; format: cell-based, Candida albicans; conditions: 250 μmol/L, positive control
Method: as §3, with “Protoplasts then finally washed once with PBS and re-suspended in the same for further use. In each washing steps the volume of these protoplast buffers were 5 times to cell volume with pH 7.4.” left out
TUNEL assay was used to detect the DNA damage, a hallmark for late stages of apoptosis. […] Slides were examined by fluorescence microscopy using Zeiss Laser Scanning Confocal Microscope (LSM) 780 (Carl Zeiss Microscopy, Jena, Germany) with an excitation wavelength of 495 nm and emission wavelength of 519 nm. […] Images were further analyzed by using software ImageJ.

[15] = system: horse red blood cells; assay: Cytotoxicity by haemolytic assay; format: cell-based
Method: The cytotoxicity of the test compounds was determined on horse red blood cells (NHLS, Johannesburg, South Africa) by testing the haemolytic activity of these compounds using the method described previously, with some modifications. Briefly, in a sterile 15 ml falcon tube 5 ml of horse blood was centrifuged at 2000 × rpm for 10 minutes. The supernatant was discarded, and the cell pellet was washed three times with chilled PBS solution. The final pellet was used to yield a 10% RBC suspension with chilled PBS. The 10% suspension were further diluted to 1:10 in PBS, then 100 µl of this suspension was added to different concentration of test compounds (0.5 × MIC, 1 × MIC and 2 × MIC) in 1.5 ml tubes. The tubes were then incubated for 60 minutes at 37 °C followed by centrifugation at 2000 × rpm for 10 minutes. From each tube, 200 µl of the supernatant was transferred to a flat-bottomed 96-well microtiter plate and absorbance was monitored at 450 nm spectrophotometrically with an iMark microplate reader (Bio-Rad laboratories, CA, USA). Triton X-100 (1%) and PBS were used as positive and negative controls respectively. The percentage of haemolysis was calculated by the following equation: %haemolysis=A450oftestcompoundtreatedsample−A450ofbuffertreatedsample/A450of1%TritonX−100treatedsample−A450ofbuffertreatedsample×100%

[16] = Candida albicans, strain 4175, FLC susceptible
[17] = Candida albicans, strain 4175, FLC susceptible, 37 °C, 24 h, read-out: MIC
[18] = over the tested C. albicans strains

| Molecule | MFC [1] [µg/mL] | MIC [1] [µg/mL] | MFC [2] [µg/mL] | MIC [2] [µg/mL] | MFC [3] [µg/mL] | MIC [3] [µg/mL] | MFC [4, 16] [µg/mL] | MIC [4, 17] [µg/mL] | MFC [5] [µg/mL] | MIC [5] [µg/mL] | MFC [6] [µg/mL] | MIC [6] [µg/mL] | MFC [7] [µg/mL] | MIC [7] [µg/mL] | MFC [8] [µg/mL] | MIC [8] [µg/mL] | MFC [9] [µg/mL] | MIC [9] [µg/mL] | MIC [10] [µg/mL] | MIC [11] [µg/mL] | further results |
| --- | --- | --- | --- | --- | --- | --- | --- | --- | --- | --- | --- | --- | --- | --- | --- | --- | --- | --- | --- | --- | --- |
| C=CCc1ccc(OS(=O)(=O)c2ccccc2)c(OC)c1 [ETC-2, 2-methoxy-4-(prop-2-en-1-yl)-phenylbenzenesulfonate] | 256 (≈ 841 µM) | 64 (≈ 210 µM) | 512 (≈ 1680 µM) | 256 (≈ 841 µM) | 512 (≈ 1680 µM) | 128 (≈ 421 µM) | 64 (≈ 210 µM) | 32 (≈ 105 µM) | 256 (≈ 841 µM) | 128 (≈ 421 µM) | 256 (≈ 841 µM) | 64 (≈ 210 µM) | 256 (≈ 841 µM) | 128 (≈ 421 µM) | 512 (≈ 1680 µM) | 256 (≈ 841 µM) | 256 (≈ 841 µM) | 128 (≈ 421 µM) | 256 (≈ 841 µM) | 32 (≈ 105 µM) | MFC [10]: 512 µg/mL (≈ 1680 µM); MFC [11]: 64 µg/mL (≈ 210 µM) |
| C=CCc1ccc(O)c(OC)c1 [EUG, 2-methoxy-4-(prop-2-en-1-yl)phenol, reference compound] | 1000 (≈ 6090 µM) | 500 (≈ 3040 µM) | 1000 (≈ 6090 µM) | 500 (≈ 3040 µM) | 1000 (≈ 6090 µM) | 500 (≈ 3040 µM) | 1000 (≈ 6090 µM) | 500 (≈ 3040 µM) | 1000 (≈ 6090 µM) | 500 (≈ 3040 µM) | 1000 (≈ 6090 µM) | 500 (≈ 3040 µM) | 1000 (≈ 6090 µM) | 500 (≈ 3040 µM) | 1000 (≈ 6090 µM) | 500 (≈ 3040 µM) | 1000 (≈ 6090 µM) | 500 (≈ 3040 µM) | 500 (≈ 3040 µM) | 500 (≈ 3040 µM) | MFC [10]: 1000 µg/mL (≈ 6090 µM); MFC [11]: 1000 µg/mL (≈ 6090 µM); MFC [12, 18]: 1000 µg/mL (≈ 6090 µM); MIC [12, 18]: 500 µg/mL (≈ 3040 µM) |
| OO [H2O2, reference compound] | – | – | – | – | – | – | – | – | – | – | – | – | – | – | – | – | – | – | – | – | early apoptosis [13]: 32–33%; late apoptosis [13]: 50–51%; necrosis [13]: 6–7%; TUNEL green fluorescence (late apoptotic cells) [14]: increased green fluorescence |
| OC(Cn1cncn1)(Cn1cncn1)c1ccc(F)cc1F [FLC, fluconazole, reference compound] | – | 8 (≈ 26.1 µM) | – | 32 (≈ 104 µM) | – | 32 (≈ 104 µM) | – | – | – | 0.25 (≈ 0.816 µM) | – | 0.25 (≈ 0.816 µM) | – | 16 (≈ 52.2 µM) | – | 0.25 (≈ 0.816 µM) | – | 0.25 (≈ 0.816 µM) | 64 (≈ 209 µM) | 0.25 (≈ 0.816 µM) | MIC ([4]; Candida albicans, 4175, 24 h): 0.125 µg/mL (≈ 0.408 µM); MIC ([12]; fluconazole resistant strains, range): 8 to 64 µg/mL (≈ 26.1 to 209 µM); MIC ([12]; fluconazole susceptible strains, range): 0.125 to 0.25 µg/mL (≈ 0.408 to 0.816 µM) |
| Triton X-100 [reference compound] | – | – | – | – | – | – | – | – | – | – | – | – | – | – | – | – | – | – | – | – | lysis [15]: 100% |
